Source: patent EP3456336B1, “A CELERY SEED AND SOPHORA FLOWER BUD EXTRACT AND MEDICAL USE THEREOF” (Beijing Tianheng Junwei Pharmaceutical Tech Co., Ltd, priority 2016, dated 2017)

What was measured:
Assay type in all cases: in vivo, SD rats
Conditions in all cases: Benzbromarone group 20 mg/kg
guanine deaminase (GuDa) = test: Serum guanine deaminase activity in hyperuricemia model rats (single enzyme reagent method)
Description: SD rats were stratified by weight using random number table method, and each layer was divided into a normal group (10 rats), a fructose modeling group (50 rats) and a purine modeling group (24 rats) using random number table method. Tap water was administered to the normal group; a 10% (w/v) fructose solution was administered to the fructose modeling group for modeling; and for the purine modeling group, tap water was administered for drinking, 500 mg/kg of hypoxanthine + 100 mg/kg of nicotinic acid was administered by gastric perfusion according to body weight once a day, and the volume of perfusion was 10 ml/kg. The food and water consumption of rats were recorded daily, the body weights were weighed every 7 days, and blood was taken by shearing the tail tip on the next day of weighing. […] Among them, 0.5% CMC-Na was administered to the normal group and the model group by gastric perfusion, and respective drugs dissolved in 0.5% CMC-Na were administered to the other administration groups by gastric perfusion. The perfusion was performed once every morning. […] Table 1 Gastric perfusion dosages of rats in each group Every 7 days during the experiment, the body weights of the animals were weighed and recorded, blood was taken from the tail vein, and serum was separated by centrifugation. The uric acid (UA), urea nitrogen (BUN), creatinine (CRE), xanthine oxidase (XOD), adenosine deaminase (ADA) and guanine deaminase (GuDa) in serum were detected. On day 35 of the experiment, the 24-hour urine of the rats was collected, the urine volume was measured, the pH value was determined, and the urinary uric acid level, urinary creatinine level, and urinary urea nitrogen level were detected. […] In the presence of an electron acceptor and a developer, a purple red conjugate was produced, and the activity of xanthine oxidase could be calculated according to the amount of the latter produced. […] Therefore, the activity of serum adenosine deaminase could be calculated. […]

xanthine oxidase (XOD) = test: Serum xanthine oxidase activity in hyperuricemia model rats (enzymatic colorimetric method)
Description: (§1) SD rats were stratified by weight using random number table method, and each layer was divided into a normal group (10 rats), a fructose modeling group (50 rats) and a purine modeling group (24 rats) using random number table method. Tap water was administered to the normal group; a 10% (w/v) fructose solution was administered to the fructose modeling group for modeling; and for the purine modeling group, tap water was administered for drinking, 500 mg/kg of hypoxanthine + 100 mg/kg of nicotinic acid was administered by gastric perfusion according to body weight once a day, and the volume of perfusion was 10 ml/kg. The food and water consumption of rats were recorded daily, the body weights were weighed every 7 days, and blood was taken by shearing the tail tip on the next day of weighing. […] Table 1 Gastric perfusion dosages of rats in each group Every 7 days during the experiment, the body weights of the animals were weighed and recorded, blood was taken from the tail vein, and serum was separated by centrifugation. The uric acid (UA), urea nitrogen (BUN), creatinine (CRE), xanthine oxidase (XOD), adenosine deaminase (ADA) and guanine deaminase (GuDa) in serum were detected. […] In the presence of an electron acceptor and a developer, a purple red conjugate was produced, and the activity of xanthine oxidase could be calculated according to the amount of the latter produced. […]

[1] = Right kidney weight of rats on day 35
Description: SD rats were stratified by weight using random number table method, and each layer was divided into a normal group (10 rats), a fructose modeling group (50 rats) and a purine modeling group (24 rats) using random number table method. Tap water was administered to the normal group; a 10% (w/v) fructose solution was administered to the fructose modeling group for modeling; and for the purine modeling group, tap water was administered for drinking, 500 mg/kg of hypoxanthine + 100 mg/kg of nicotinic acid was administered by gastric perfusion according to body weight once a day, and the volume of perfusion was 10 ml/kg. The food and water consumption of rats were recorded daily, the body weights were weighed every 7 days, and blood was taken by shearing the tail tip on the next day of weighing. […]
Every 7 days during the experiment, the body weights of the animals were weighed and recorded, blood was taken from the tail vein, and serum was separated by centrifugation. The uric acid (UA), urea nitrogen (BUN), creatinine (CRE), xanthine oxidase (XOD), adenosine deaminase (ADA) and guanine deaminase (GuDa) in serum were detected. On day 35 of the experiment, the 24-hour urine of the rats was collected, the urine volume was measured, the pH value was determined, and the urinary uric acid level, urinary creatinine level, and urinary urea nitrogen level were detected. […]

hyperuricemia model [2] = test: Uric acid reducing effect: serum uric acid in high-fructose hyperuricemia model rats (uricase colorimetric method)
Description: (§2) SD rats were stratified by weight using random number table method, and each layer was divided into a normal group (10 rats), a fructose modeling group (50 rats) and a purine modeling group (24 rats) using random number table method. Tap water was administered to the normal group; a 10% (w/v) fructose solution was administered to the fructose modeling group for modeling; and for the purine modeling group, tap water was administered for drinking, 500 mg/kg of hypoxanthine + 100 mg/kg of nicotinic acid was administered by gastric perfusion according to body weight once a day, and the volume of perfusion was 10 ml/kg. The food and water consumption of rats were recorded daily, the body weights were weighed every 7 days, and blood was taken by shearing the tail tip on the next day of weighing. […] Among them, 0.5% CMC-Na was administered to the normal group and the model group by gastric perfusion, and respective drugs dissolved in 0.5% CMC-Na were administered to the other administration groups by gastric perfusion. The perfusion was performed once every morning. […] During the experiment, since there was no significant difference in blood uric acid level between the purine modeling group and the normal group from beginning to end, the modeling of the hyperuricemia model in rats was not successful, therefore, the rats were not further grouped. Table 1 Gastric perfusion dosages of rats in each group Every 7 days during the experiment, the body weights of the animals were weighed and recorded, blood was taken from the tail vein, and serum was separated by centrifugation. The uric acid (UA), urea nitrogen (BUN), creatinine (CRE), xanthine oxidase (XOD), adenosine deaminase (ADA) and guanine deaminase (GuDa) in serum were detected. On day 35 of the experiment, the 24-hour urine of the rats was collected, the urine volume was measured, the pH value was determined, and the urinary uric acid level, urinary creatinine level, and urinary urea nitrogen level were detected. After the experiment was terminated, the rats were sacrificed, and the right kidneys were taken and weighed. The specific determination method of each index was as follows. • ① Detecting serum uric acid and urinary uric acid by uricase colorimetric method: uric acid was catalyzed by uricase to produce allantoin and hydrogen peroxide (H2O2); […] A serum or urine sample was taken. […] Jaffe reaction occurred between the creatinine in the supernatant of serum from which protein was removed or the creatinine in clear urine and picric acid to produce an orange adduct. A serum or urine sample was taken. […] A serum or urine sample was taken. […] In the presence of an electron acceptor and a developer, a purple red conjugate was produced, and the activity of xanthine oxidase could be calculated according to the amount of the latter produced. A serum sample was taken. According to the operating instruction of Xanthine Oxidase Assay Kit, under the conditions of a cuvette the light path of 1 cm and a wavelength of 530 nm, double distilled water was used for zero calibration; the absorbance was determined by a UV spectrophotometer, and the activity of xanthine oxidase was obtained. • ⑤ Detecting adenosine deaminase (ADA) by enzymatic colorimetric method: adenine riboside was catalyzed by adenosine deaminase to hydrolyze and produce hypoxanthine riboside and ammonia, and the produced ammonia was developed. Therefore, the activity of serum adenosine deaminase could be calculated. A serum sample was taken. […]

[3] = tested on: adenosine deaminase (ADA); test: Serum adenosine deaminase activity in hyperuricemia model rats (enzymatic colorimetric method)
Description: as §1

hyperuricemia model [4] = test: 24-hour urine indices on day 35 in hyperuricemia model rats (volume, pH, uric acid, creatinine, urea nitrogen, clearances); parameters: Uric acid clearance / Creatinine clearance: unit not given here
Description: as §2

[5] = Body weight of rats during the 35-day hyperuricemia experiment
Description: SD rats were stratified by weight using random number table method, and each layer was divided into a normal group (10 rats), a fructose modeling group (50 rats) and a purine modeling group (24 rats) using random number table method. Tap water was administered to the normal group; a 10% (w/v) fructose solution was administered to the fructose modeling group for modeling; and for the purine modeling group, tap water was administered for drinking, 500 mg/kg of hypoxanthine + 100 mg/kg of nicotinic acid was administered by gastric perfusion according to body weight once a day, and the volume of perfusion was 10 ml/kg. The food and water consumption of rats were recorded daily, the body weights were weighed every 7 days, and blood was taken by shearing the tail tip on the next day of weighing.
Among them, 0.5% CMC-Na was administered to the normal group and the model group by gastric perfusion, and respective drugs dissolved in 0.5% CMC-Na were administered to the other administration groups by gastric perfusion. The perfusion was performed once every morning. The dosages of administration were as follows: the dosage of benzbromarone was 20 mg/kg, the large-, medium- and small-dosages of the extract of the present disclosure were 1.9 g/kg, 0.95 g/kg, and 0.475 g/kg, respectively, the volume of administration was 15 ml/kg, and the experiment lasted for 35 days in total. During the experiment, since there was no significant difference in blood uric acid level between the purine modeling group and the normal group from beginning to end, the modeling of the hyperuricemia model in rats was not successful, therefore, the rats were not further grouped. Table 1 Gastric perfusion dosages of rats in each group
Every 7 days during the experiment, the body weights of the animals were weighed and recorded, blood was taken from the tail vein, and serum was separated by centrifugation. The uric acid (UA), urea nitrogen (BUN), creatinine (CRE), xanthine oxidase (XOD), adenosine deaminase (ADA) and guanine deaminase (GuDa) in serum were detected. On day 35 of the experiment, the 24-hour urine of the rats was collected, the urine volume was measured, the pH value was determined, and the urinary uric acid level, urinary creatinine level, and urinary urea nitrogen level were detected. After the experiment was terminated, the rats were sacrificed, and the right kidneys were taken and weighed.

hyperuricemia model [6] = test: Serum urea nitrogen (urease method) and serum creatinine (picric acid method) in hyperuricemia model rats
Description: as §2

right kidney Weight [1]: 1.43 ± 0.10^ΔΔ g
SMILES: CCc1oc2ccccc2c1C(=O)c1cc(Br)c(O)c(Br)c1 [Benzbromarone, benzbromarone]
serum guanine deaminase activity (guanine deaminase (GuDa); Day 21): 29.46 ± 3.57^Δ U/L
serum guanine deaminase activity (guanine deaminase (GuDa); Day 21, listed as benzbromarone): significant decrease
serum guanine deaminase activity (guanine deaminase (GuDa); Day 35): 11.46 ± 4.83 U/L
serum xanthine oxidase level (xanthine oxidase (XOD); Day 21): 28.66 ± 3.75 U/L
serum xanthine oxidase level (xanthine oxidase (XOD); Day 35): 20.61 ± 2.67 U/L
serum uric acid level (hyperuricemia model [2]; Day 0, modeling period): 75.83 ± 38.77 µmol/L
serum uric acid level (hyperuricemia model [2]; Day 7, modeling period): 94.75 ± 25.26 µmol/L
serum uric acid level (hyperuricemia model [2]; Day 14, modeling period): 65.57±27.48^Δ µmol/L
serum uric acid level (hyperuricemia model [2]; Day 14, modeling period, listed as benzbromarone): significant decrease
serum uric acid level (hyperuricemia model [2]; Day 21, administration period): 68.45 ± 22.20 µmol/L
serum uric acid level (hyperuricemia model [2]; Day 28, administration period): 79.65±24.68^Δ µmol/L
serum uric acid level (hyperuricemia model [2]; Day 28, administration period, listed as benzbromarone): significant decrease
serum uric acid level (hyperuricemia model [2]; Day 35, administration period): 85.66±18.37^Δ µmol/L
serum uric acid level (hyperuricemia model [2]; Day 35, administration period, listed as benzbromarone): significant decrease
serum adenosine deaminase level ([3]; Day 21): 54.22 ± 8.72 U/ml
serum adenosine deaminase level ([3]; Day 35): 97.69 ± 15.32 U/ml
Creatinine clearance (hyperuricemia model [4]): 1.67 ± 1.18
Uric acid clearance (hyperuricemia model [4]): 0.155 ± 0.047
24-hour Urine volume (hyperuricemia model [4]; Day 35): 117.80 ± 31.17 mL
urinary pH (hyperuricemia model [4]; Day 35): 6.70 ± 0.71
UBUN (concentration of urinary urea nitrogen) (hyperuricemia model [4]; day 35): 156.36 ± 133.40 mmol/L
UCR (concentration of urinary creatinine) (hyperuricemia model [4]; day 35): 1256.25 ± 332.40 µmol/L
UUA (concentration of urinary uric acid) (hyperuricemia model [4]; day 35): 173.57 ± 56.65 µmol/L
body weight ([5]; Day 0, modeling period): 243.40 ± 7.63 g
body weight ([5]; Day 7, modeling period): 325.46 ± 15.10 g
body weight ([5]; Day 14, modeling period): 365.30 ± 20.19 g
body weight ([5]; Day 21, administration period): 391.83 ± 19.39 g
body weight ([5]; Day 28, administration period): 425.86 ± 22.33 g
body weight ([5]; Day 35, administration period): 433.88 ± 27.07 g
Serum creatinine (hyperuricemia model [6]; Day 21): 99.21 ± 17.50 µmol/L
Serum urea nitrogen (hyperuricemia model [6]; Day 21): 5.73 ± 1.02 mM
Serum creatinine (hyperuricemia model [6]; Day 35): 74.54±25.76^Δ µmol/L
Serum urea nitrogen (hyperuricemia model [6]; Day 35): 6.27 ± 1.62 mM
Serum creatinine (hyperuricemia model [6]; Day 35, listed as benzbromarone): significant decrease
